Data reported in patent publication US6495524B1, “Benzo[b]pyran derivatives useful as external agents for the skin” (Pola Chemical Industries Inc., priority 1998, dated 2002).

Columns and labels:
[1] = tested on: fish; settings: Heterocycles, Vol. 41, No. 9, 1923-1926 (1995); cited from earlier work
[2] = tested on: Staphylococcus aureus; settings: Heterocycles, Vol. 41, No. 9, 1923-1926 (1995); cited from earlier work
[3] = tested on: mouse melanoma-derived cells B-16; test: Inhibitory activity against melanine synthesis; type: cell-based; settings: for Inhibition Ratio (melanine synthesis) / Amount of Melanine: 4 days; for Amount of Melanine: mean ± SD of five flasks; for inhibitory activity against the melanine synthesis by melanocytes (in words): remarkable in concentrations of 0.0005 w/v% or more
Protocol: 3×10^4 cells of mouse melanoma-derived cells B-16 were inoculated in a plastic incubation flask (75 cm^3) and incubated in Eagle MEM medium containing 10% fetal bovine serum under the conditions of 5% CO2 and 37° C. Two days after the start of the incubation, the inulavosin obtained in Production Example 1 above, the acetylinulavosin obtained in Example 1, or the glucosylinulavosin obtained in Example 2 was added to the incubation flask so that its concentration in the medium became 5×10^−5 to 1×10^−3 (W/V%) as shown in Tables 1 to 3 below, and the incubation was continued for additional 4 days. After completion of the incubation, the medium was removed from the incubation flask and the flask was washed with equilibrium phosphate buffer solution (hereinafter referred as “PBS”). Thereafter, the cells adhered on the incubation flask were stripped off with a solution containing trypsin and EDTA and then the obtained mixture was centrifuged to collect the cells.
After washing the collected cells with PBS, 1N sodium hydroxide was added to the precipitate, and the mixture was heat-dissolved. After cooling, chloroform was added thereto and the mixture was stirred and centrifuged again. The resultant supernatant was measured for absorbance at 400 nm and the amount of melanine was obtained by a calibration curve prepared in advance using synthetic melanine. The amount of melanine was obtained as weight (μg) per 10^6 cells. In the experiments, five flasks were used for each concentration of the test samples.
Tables 1 to 3 show the results obtained as average values of five flasks together with standard deviations. Tables 1 to 3 show the results for inulavosin, acetylinulavosin, and glucosylinulavosin, respectively.
In addition, as a control, the amount of melanine was determined by conducting the same experiments as described above except that the compound represented by formula (I) was not added. From the amount of melanine in the absence of samples and the amount of melanine in the presence of a sample, there was obtained melanine synthesis inhibition ratio (R(%)) by the following equation. The amount of melanine in the equation was an average value obtained from five flasks.
R: Melanine synthesis inhibition ratio
A: Amount of melanine in the absence of samples
B: Amount of melanine in the presence of a sample

[4] = tested on: Pseudomonas aeruginosa; settings: Heterocycles, Vol. 41, No. 9, 1923-1926 (1995); cited from earlier work

SMILES	fish toxin activity [1]	antibacterial activity [2]	Inhibition Ratio (melanine synthesis) ([3]; 1 × 10^−3 W/V % in medium) [%]	Amount of Melanine ([3]; 1 × 10^−3 W/V % in medium) [μg/10^6 cells]	Inhibition Ratio (melanine synthesis) ([3]; 1 × 10^−4 W/V % in medium) [%]	Amount of Melanine ([3]; 1 × 10^−4 W/V % in medium) [μg/10^6 cells]	Inhibition Ratio (melanine synthesis) ([3]; 5 × 10^−4 W/V % in medium) [%]	Amount of Melanine ([3]; 5 × 10^−4 W/V % in medium) [μg/10^6 cells]	Inhibition Ratio (melanine synthesis) ([3]; 5 × 10^−5 W/V % in medium) [%]	Amount of Melanine ([3]; 5 × 10^−5 W/V % in medium) [μg/10^6 cells]	inhibitory activity against the melanine synthesis by melanocytes (in words) [3]	antibacterial activity [4]
Cc1ccc(C2(C)CC(C)(C)c3ccc(C)cc3O2)c(O)c1 (stereo not drawn) [Inulavosin, 2′-hydroxy-2,4,4,7,4′-pentamethylflavan]	fish toxin activity	antibacterial activity	91.3	0.28 ± 0.17	31.0	2.23 ± 0.24	73.1	0.87 ± 0.21	15.2	2.74 ± 0.32	have inhibitory activity against the melanine synthesis by melanocytes	antibacterial activity
Cc1ccc2c(c1)OC(C)(c1ccc(C)cc1OC1O[C@H](CO)[C@@H](O)[C@H](O)[C@H]1O)CC2(C)C (stereo partly drawn) [Glucosylinulavosin, 2′-O-glucosyl-2,4,4,7,4′-pentamethylflavan]			80.8	0.62 ± 0.15	22.0	2.52 ± 0.23	58.2	1.35 ± 0.17	6.5	3.02 ± 0.33	have inhibitory activity against the melanine synthesis by melanocytes	
CC(=O)Oc1cc(C)ccc1C1(C)CC(C)(C)c2ccc(C)cc2O1 (stereo not drawn) [Acetylinulavosin, 2′-acetoxy-2,4,4,7,4′-pentamethylflavan]			87.9	0.39 ± 0.18	25.1	2.42 ± 0.26	62.2	1.22 ± 0.17	9.3	2.93 ± 0.35	have inhibitory activity against the melanine synthesis by melanocytes	
